{"source": "patent US6573218B1", "about": "“Fused-benzene derivatives useful as herbicides” (Ishihara Sangyo Kaisha, Ltd., priority 1998, dated 2003)", "assay_type_in_all_cases": "in vivo", "key": {"[1]": {"test_system": "barnyardgrass (Echinochloa crus-galli, ECHCG)", "assay": "Post-emerge greenhouse herbicide test", "conditions": "250 g ai/ha, 14 days after application", "source_text": "(§1) A standard greenhouse herbicide activity screening system was used to evaluate the herbicidal efficacy and crop safety of these test compounds. Seven broadleaf weed species including redroot pigweed (Amaranthus retroflexus, AMARE), velvetleaf (Abutilon theophrasti, ABUTH), sicklepod (Cassia obtusifolia, CASOB), ivyleaf morningglory (Ipomoea hederacea, IPOHE), lambsquarters (Chenopodium album, CHEAL), common ragweed (Ambrosia artemisiifolia L., AMBEL), and cocklebur (Xanthium strumarium, XANST) were used as test species. Four grass weed species including green foxtail (Setaria viridis, SETVI), barnyardgrass (Echinochloa crus-galli, ECHCG), johnsongrass (Sorghum halepense, SORHA), and large crabgrass (Digitaria sanguinalis, DIGSA) were also used. In addition, three crop species, field corn (Zea mays L., var. Dekalb 527, CORN), soybean (Glycine max L., var. Pella 86, SOY), and upland rice (Ory0a sp., var.Tebonnet, RICE) were included.\n(§2) All plants were grown in 10 cm square plastic pots which were filled with a sandy loam soil mix. For pre-emerge tests, seeds were planted one day prior to application of the test compounds. For post-emerge tests, seeds were planted 8-21 days prior to the test to allow emergence and good foliage development prior to application of the test substances. At the time of the post-emerge application, plants of all species were usually at the 2-3 leaf stage of development.\n(§3) All test compounds were dissolved in acetone and applied to the test units in a volume of 187 l/ha. Test materials were applied at rates ranging from 15 g ai/ha to 1000 g ai/ha using a track sprayer equipped with a TJ8001E even flow flat fan spray nozzle. Plants were arranged on a shelf so that the top of the canopy (post-emerge) or top of the soil surface (pre-emerge) was 40-45 cm below the nozzle. Pressurized air was used to force the test solution through the nozzle as it was mechanically advanced over the top of all test plants/pots. This application simulates a typical commercial field herbicide application.\n(§4) In the post-emerge test, a commercial non-ionic surfactant was also included (0.25% v/v) to enhance wetting of the leaf surfaces of target plants. Immediately after application, test units of the pre-emerge applications were watered at the soil surface to incorporate the test materials.\n(§5) At 14 days after application of the test materials, phytotoxicity ratings were recorded. A rating scale of 0-100 was used as previously described in Research Methods in Weed Science, 2nd edition, B. Truelove, Ed., Southern Weed Science Society, Auburn University, Auburn, Ala., 1977. Briefly, “0” corresponds to no damage and “100” corresponds to complete death of all plants in the test unit. This scale was used both to determine efficacy against weed species and damage to crop species. Herbicide activity data for various compounds of this invention, which are shown by compound No. in Tables 1-14, are shown in Tables 16 and 17."}, "[2]": {"test_system": "green foxtail (Setaria viridis, SETVI)", "assay": "Post-emerge greenhouse herbicide test", "conditions": "250 g ai/ha, 14 days after application", "source_text": "as §1, §2, §3, §4, §5"}, "[3]": {"test_system": "ivyleaf morningglory (Ipomoea hederacea, IPOHE)", "assay": "Post-emerge greenhouse herbicide test", "conditions": "250 g ai/ha, 14 days after application", "source_text": "as §1, §2, §3, §4, §5"}, "[4]": {"test_system": "lambsquarters (Chenopodium album, CHEAL)", "assay": "Post-emerge greenhouse herbicide test", "conditions": "250 g ai/ha, 14 days after application", "source_text": "as §1, §2, §3, §4, §5"}, "[5]": {"test_system": "large crabgrass (Digitaria sanguinalis, DIGSA)", "assay": "Post-emerge greenhouse herbicide test", "conditions": "250 g ai/ha, 14 days after application", "source_text": "as §1, §2, §3, §4, §5"}, "[6]": {"test_system": "redroot pigweed (Amaranthus retroflexus, AMARE)", "assay": "Post-emerge greenhouse herbicide test", "conditions": "250 g ai/ha, 14 days after application", "source_text": "as §1, §2, §3, §4, §5"}, "[7]": {"test_system": "sicklepod (Cassia obtusifolia, CASOB)", "assay": "Post-emerge greenhouse herbicide test", "conditions": "250 g ai/ha, 14 days after application", "source_text": "as §1, §2, §3, §4, §5"}, "[8]": {"test_system": "velvetleaf (Abutilon theophrasti, ABUTH)", "assay": "Post-emerge greenhouse herbicide test", "conditions": "250 g ai/ha, 14 days after application", "source_text": "as §1, §2, §3, §4, §5"}, "[9]": {"test_system": "field corn (Zea mays L., var. Dekalb 527, CORN)", "assay": "Post-emerge greenhouse crop damage test", "conditions": "250 g ai/ha, post-emerge, 14 days after application", "source_text": "as §1, §2, §3, §4, §5"}, "[10]": {"test_system": "soybean (Glycine max L., var. Pella 86, SOY)", "assay": "Post-emerge greenhouse crop damage test", "conditions": "in vivo", "source_text": "as §1, §2, §3, §4, §5"}, "[11]": {"test_system": "upland rice (Ory0a sp., var.Tebonnet, RICE)", "assay": "Post-emerge greenhouse crop damage test", "conditions": "250 g ai/ha, post-emerge, 14 days after application", "source_text": "as §1, §2, §3, §4, §5"}, "[12]": {"test_system": "barnyardgrass (Echinochloa crus-galli, ECHCG)", "assay": "Pre-emerge greenhouse herbicide test", "conditions": "250 g ai/ha, 14 days after application, scale 0-100 (0 no damage, 100 complete death)", "source_text": "as §1, §2, §3, §4, §5"}, "[13]": {"test_system": "green foxtail (Setaria viridis, SETVI)", "assay": "Pre-emerge greenhouse herbicide test", "conditions": "250 g ai/ha, 14 days after application, scale 0-100 (0 no damage, 100 complete death)", "source_text": "as §1, §2, §3, §4, §5"}, "[14]": {"test_system": "ivyleaf morningglory (Ipomoea hederacea, IPOHE)", "assay": "Pre-emerge greenhouse herbicide test", "conditions": "250 g ai/ha, 14 days after application, scale 0-100 (0 no damage, 100 complete death)", "source_text": "as §1, §2, §3, §4, §5"}, "[15]": {"test_system": "lambsquarters (Chenopodium album, CHEAL)", "assay": "Pre-emerge greenhouse herbicide test", "conditions": "250 g ai/ha, 14 days after application, scale 0-100 (0 no damage, 100 complete death)", "source_text": "as §1, §2, §3, §4, §5"}, "[16]": {"test_system": "large crabgrass (Digitaria sanguinalis, DIGSA)", "assay": "Pre-emerge greenhouse herbicide test", "conditions": "250 g ai/ha, 14 days after application, scale 0-100 (0 no damage, 100 complete death)", "source_text": "as §1, §2, §3, §4, §5"}, "[17]": {"test_system": "redroot pigweed (Amaranthus retroflexus, AMARE)", "assay": "Pre-emerge greenhouse herbicide test", "conditions": "250 g ai/ha, 14 days after application, scale 0-100 (0 no damage, 100 complete death)", "source_text": "as §1, §2, §3, §4, §5"}, "[18]": {"test_system": "sicklepod (Cassia obtusifolia, CASOB)", "assay": "Pre-emerge greenhouse herbicide test", "conditions": "250 g ai/ha, 14 days after application, scale 0-100 (0 no damage, 100 complete death)", "source_text": "as §1, §2, §3, §4, §5"}, "[19]": {"test_system": "velvetleaf (Abutilon theophrasti, ABUTH)", "assay": "Pre-emerge greenhouse herbicide test", "conditions": "250 g ai/ha, 14 days after application, scale 0-100 (0 no damage, 100 complete death)", "source_text": "as §1, §2, §3, §4, §5"}, "[20]": {"test_system": "field corn (Zea mays L., var. Dekalb 527, CORN)", "assay": "Pre-emerge greenhouse crop damage test", "conditions": "pre-emerge, 250 g ai/ha, 14 days after application, scale 0-100 (0 no damage, 100 complete death)", "source_text": "as §1, §2, §3, §4, §5"}, "[21]": {"test_system": "soybean (Glycine max L., var. Pella 86, SOY)", "assay": "Pre-emerge greenhouse crop damage test", "conditions": "pre-emerge, 250 g ai/ha, 14 days after application, scale 0-100 (0 no damage, 100 complete death)", "source_text": "as §1, §2, §3, §4, §5"}, "[22]": {"test_system": "upland rice (Ory0a sp., var.Tebonnet, RICE)", "assay": "Pre-emerge greenhouse crop damage test", "conditions": "pre-emerge, 250 g ai/ha, 14 days after application, scale 0-100 (0 no damage, 100 complete death)", "source_text": "as §1, §2, §3, §4, §5"}}}
{"smiles": "CCc1nc2c(N3C(=O)C4CCCCN4C3=S)c(F)cc(Cl)c2o1", "note": "(single isomer, unassigned) [Compound 7-6, 8-(7-Chloro-2-ethyl-5-fluorobenzoxazol-4-yl)-1,8-diazobicyclo[4,3,0]nonane-7-one-9-thione]", "values": [{"measurement": "Post-emerge Herbicidal Activity ECHCG (phytotoxicity rating 0-100)", "setting": "[1]", "value": 0}, {"measurement": "Post-emerge Herbicidal Activity SETVI (phytotoxicity rating 0-100)", "setting": "[2]", "value": 10}, {"measurement": "Post-emerge Herbicidal Activity IPOHE (phytotoxicity rating 0-100)", "setting": "[3]", "value": 70}, {"measurement": "Post-emerge Herbicidal Activity CHEAL (phytotoxicity rating 0-100)", "setting": "[4]", "value": 60}, {"measurement": "Post-emerge Herbicidal Activity DIGSA (phytotoxicity rating 0-100)", "setting": "[5]", "value": 0}, {"measurement": "Post-emerge Herbicidal Activity AMARE (phytotoxicity rating 0-100)", "setting": "[6]", "value": 30}, {"measurement": "Post-emerge Herbicidal Activity CASOB (phytotoxicity rating 0-100)", "setting": "[7]", "value": 30}, {"measurement": "Post-emerge Herbicidal Activity ABUTH (phytotoxicity rating 0-100)", "setting": "[8]", "value": 90}, {"measurement": "Post-emerge crop damage CORN (phytotoxicity rating 0-100)", "setting": "[9]", "value": 30}, {"measurement": "Post-emerge crop damage SOY (phytotoxicity rating 0-100)", "setting": "[10]", "value": 50}, {"measurement": "Post-emerge crop damage RICE (phytotoxicity rating 0-100)", "setting": "[11]", "value": 10}]}
{"smiles": "CCc1nc2c(N3C(=O)C4CCCCN4C3=O)c(F)cc(Cl)c2o1", "note": "(stereo not shown) [Compound 7-9]", "values": [{"measurement": "Pre-emerge Herbicidal Activity ECHCG (phytotoxicity rating)", "setting": "[12]", "value": 10}, {"measurement": "Pre-emerge Herbicidal Activity SETVI (phytotoxicity rating)", "setting": "[13]", "value": 40}, {"measurement": "Pre-emerge Herbicidal Activity IPOHE (phytotoxicity rating)", "setting": "[14]", "value": 20}, {"measurement": "Pre-emerge Herbicidal Activity CHEAL (phytotoxicity rating)", "setting": "[15]", "value": 100}, {"measurement": "Pre-emerge Herbicidal Activity DIGSA (phytotoxicity rating)", "setting": "[16]", "value": 30}, {"measurement": "Pre-emerge Herbicidal Activity AMARE (phytotoxicity rating)", "setting": "[17]", "value": 100}, {"measurement": "Pre-emerge Herbicidal Activity CASOB (phytotoxicity rating)", "setting": "[18]", "value": 10}, {"measurement": "Pre-emerge Herbicidal Activity ABUTH (phytotoxicity rating)", "setting": "[19]", "value": 50}, {"measurement": "Pre-emerge Herbicidal Activity CORN (crop damage rating)", "setting": "[20]", "value": 0}, {"measurement": "Pre-emerge Herbicidal Activity SOY (crop damage rating)", "setting": "[21]", "value": 15}, {"measurement": "Pre-emerge Herbicidal Activity RICE (crop damage rating)", "setting": "[22]", "value": 10}]}
